Data from ChEMBL document CHEMBL1287642, “Synthesis, antiviral activity and cytotoxicity evaluation of Schiff bases of some 2-phenyl quinazoline-4(3)H-ones” (Eur J Med Chem, 2010).
Converted amounts (≈) assume the structure as drawn.

Tested on: Vaccinia virus
Assay: Antiviral activity against Vaccinia virus infected in human HEL cells assessed as protection against virus-induced cytopathogenicity after 2 days
Assay type: functional, organism-based
Conditions: Orthopoxvirus vaccinia, 48 h

Row | SMILES | EC50
1 | NC(=O)c1ncn([C@@H]2O[C@H](CO)[C@@H](O)[C@H]2O)n1 [RIBAVIRIN] | > 250 µg/mL
2 | C/C(=N\n1c(-c2ccccc2)nc2ccccc2c1=O)c1ccc(O)cc1 | > 100 µg/mL
3 | O=c1c2ccccc2nc(-c2ccccc2)n1/N=C/c1ccccc1O | 0.8 µg/mL (≈ 2.34 µM)
4 | C/C(=N\n1c(-c2ccccc2)nc2ccccc2c1=O)c1ccccc1 | > 100 µg/mL
5 | O=c1c2ccccc2nc(-c2ccccc2)n1/N=C/c1ccccc1 | 9 µg/mL (≈ 27.7 µM)
6 | Nc1nc2c(ncn2COC(CO)CO)c(=O)[nH]1 [GANCICLOVIR] | > 100 µg/mL
7 | COc1ccc(/C=N/n2c(-c3ccccc3)nc3ccccc3c2=O)cc1 | 9 µg/mL (≈ 25.3 µM)
8 | O=c1c2ccccc2nc(-c2ccccc2)n1/N=C/c1cccc([N+](=O)[O-])c1 | > 20 µg/mL
9 | O=c1c2ccccc2nc(-c2ccccc2)n1/N=C/c1ccc(Cl)cc1 | 20 µg/mL (≈ 55.6 µM)
10 | O=c1c2ccccc2nc(-c2ccccc2)n1/N=C/c1ccc(O)cc1 | 12 µg/mL (≈ 35.2 µM)
11 | COc1ccc(/C=N/n2c(-c3ccccc3)nc3ccccc3c2=O)cc1O | 20 µg/mL (≈ 53.9 µM)
12 | O=c1[nH]c(=O)n([C@H]2C[C@H](O)[C@@H](CO)O2)cc1/C=C/Br [BRIVUDINE] | 4 µg/mL (≈ 12 µM)
13 | Nc1ccn(C[C@@H](CO)OCP(=O)(O)O)c(=O)n1.O.O [CIDOFOVIR] | 8 µg/mL
14 | COc1ccccc1/C=N/n1c(-c2ccccc2)nc2ccccc2c1=O | > 20 µg/mL
